In patent US20100298252A1, “METHODS AND COMPOSITIONS FOR OPHTHALMIC TREATMENT OF FUNGAL AND BACTERIAL INFECTIONS” (priority 2004, published 2010):

Assays:
Enterococcus faecalis = assay: Antibiotic resistance profile by disc diffusion; type: cell-based; design: key: R = resistant; I = intermediate; S = sensitive; conditions: disc diffusion on MHA
Procedure: (§1) The organisms of this study were isolated from human burn patients. They included strains of methicillin resistant Staphylococcus aureus, and vancomycin resistant strains of Pseudomonas aeruginosa and Enterococcus faecalis. The bacterial isolates were propagated in or on Brain Heart Infusion broth (BHI), Mueller-Hinton Broth (MHB), blood agar (BA), Mueller-Hinton agar (MHA), enterococcus agar (EA), or 2× nutrient agar (2×NA).
(§2) Antibiotic resistance profiles were determined by the disc diffusion method on MHA (5).

Pseudomonas aeruginosa = assay: Antibiotic resistance profile by disc diffusion; type: cell-based; design: key: R = resistant; I = intermediate; S = sensitive; conditions: disc diffusion on MHA
Procedure: as §1, §2

Staphylococcus aureus = assay: Antibiotic resistance profile by disc diffusion; type: cell-based; design: key: R = resistant; I = intermediate; S = sensitive; conditions: disc diffusion on MHA
Procedure: as §1, §2

[1] = system: Candidia albicans ATCC 90028; assay: Antifungal MIC 50 / MIC 90 alone and combined with Tricide; type: cell-based, Candida albicans;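 also: MIC 50 and MIC 90 values are means, and the percent decrease is the drop in MIC when the antifungal is combined with Tricide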
[2] = system: Paecilomyces variotti ATCC 36257; assay: as above; type: cell-based
Aspergillus sp. = assay: as above; type: cell-based
Fusarium sp. 1 = assay: microbe, parasite or virus in culture; type: cell-based
Fusarium sp. 2 = assay: microbe, parasite or virus in culture; type: cell-based
Fusarium sp. 3 = assay: microbe, parasite or virus in culture; type: cell-based
Penicillium sp. = assay: Antifungal MIC 50 / MIC 90 alone and combined with Tricide; type: cell-based
Cladosporium sp. = assay: as above; type: cell-based
Curvularia sp. = assay: as above; type: cell-based
[3] = Candida albicans, ATCC90028, Candidia albicans ATCC 90028, antifungal alone
[4] = Paecilomyces variotti, Tricide […]
[5] = Aspergillus sp., Tricide 200 ug/ml
[6] = Aspergillus, Aspergiullus sp., antifungal alone
[7] = Fusarium sp. 1, Tricide 540 ug/ml
[8] = Fusarium sp. 1, antifungal alone
[9] = Curvilaria sp., Tricide 200 ug/ml
[10] = Curvularia sp., antifungal alone

## CN(C)[C@@H]1C(O)=C(C(N)=O)C(=O)[C@@]2(O)C(O)=C3C(=O)c4c(O)cccc4[C@@](C)(O)[C@H]3C[C@@H]12 [Te, tetracycline]
Enterococcus faecalis
  Antibiotic resistance profile: R
Pseudomonas aeruginosa
  Antibiotic resistance profile: R
Staphylococcus aureus
  Antibiotic resistance profile: S

## gentamicin [Gm]
Enterococcus faecalis
  Antibiotic resistance profile: R
Pseudomonas aeruginosa
  Antibiotic resistance profile: I
Staphylococcus aureus
  Antibiotic resistance profile: S

## CN[C@H](CC(C)C)C(=O)N[C@H]1C(=O)N[C@@H](CC(N)=O)C(=O)N[C@H]2C(=O)N[C@H]3C(=O)N[C@H](C(=O)N[C@H](C(=O)O)c4cc(O)cc(O)c4-c4cc3ccc4O)[C@H](O)c3ccc(c(Cl)c3)Oc3cc2cc(c3O[C@@H]2O[C@H](CO)[C@@H](O)[C@H](O)[C@H]2O[C@H]2C[C@](C)(N)[C@H](O)[C@H](C)O2)Oc2ccc(cc2Cl)[C@H]1O [Va, vancomycin]
Enterococcus faecalis
  Antibiotic resistance profile: R
Pseudomonas aeruginosa
  Antibiotic resistance profile: R
Staphylococcus aureus
  Antibiotic resistance profile: S

## [H]/N=C(/N)N[C@H]1[C@H](O)[C@@H](O)[C@H](O[C@@H]2O[C@@H](C)[C@](O)(C=O)[C@H]2O[C@@H]2O[C@@H](CO)[C@H](O)[C@@H](O)[C@@H]2NC)[C@@H](N/C(N)=N\[H])[C@@H]1O [S, streptomycin]
Enterococcus faecalis
  Antibiotic resistance profile: R
Pseudomonas aeruginosa
  Antibiotic resistance profile: R
Staphylococcus aureus
  Antibiotic resistance profile: S

## Clc1ccc(COC(Cn2ccnc2)c2ccc(Cl)cc2Cl)c(Cl)c1 (stereo not shown) [Miconazole, miconazole]
[1]; [3]
  MIC50: 0.5 µg/mL
  MIC90: > 1 µg/mL
[1]; Candida albicans, Tricide […]
  % decrease MIC 50: 100%
  % decrease MIC 90: 100%
  MIC 50 combined with Tricide: 0 µg/mL
[1]; Candidia albicans ATCC 90028
  Summary % reduction in MIC 50 using Tricide: 100%
  Summary % reduction in MIC 90 using Tricide: 100%
[2]; ATCC36257, Paecilomyces variotti ATCC 36257, antifungal alone, read-out: MIC 50
  MIC50: 0.0764 µg/mL
[2]; ATCC36257, Paecilomyces variotti ATCC 36257, antifungal alone, read-out: MIC 90
  MIC90: > 1 µg/mL
[2]; Paecilomyces variotti ATCC36257
  Summary % reduction in MIC 50 using Tricide: 97.4%
[2]; [4]
  % decrease MIC 50: 97.4%
  MIC 50 combined with Tricide: 2 ng/mL
  MIC 90 combined with Tricide: >1 µg/mL
Aspergillus sp.; [5]
  % decrease MIC 50: 96%
  % decrease MIC 90: 84%
  MIC 50 combined with Tricide: 0.1250 µg/mL
  MIC 90 combined with Tricide: 2 µg/mL
Aspergillus sp.; [6]
  MIC50: 3.11 µg/mL
  MIC90: 12.4 µg/mL
Aspergillus sp.; Aspergiullus sp.
  Summary % reduction in MIC 50 using Tricide: 96%
  Summary % reduction in MIC 90 using Tricide: 84%
Fusarium sp. 1; Fasarium sp. 1
  Summary % reduction in MIC 50 using Tricide: >99.8%-100%
  Summary % reduction in MIC 90 using Tricide: 99.8%-100%
Fusarium sp. 1; [7]
  % decrease MIC 50: >99.8-100% ^
  % decrease MIC 90: 99.8-100%^
  MIC 90 combined with Tricide: 0 to 0.05 µg/mL
Fusarium sp. 1; [8]
  MIC50: > 128 µg/mL
  MIC90: > 128 µg/mL
Fusarium sp. 2
  Summary % reduction in MIC 50 using Tricide: >99.9%-100%
  Summary % reduction in MIC 90 using Tricide: 99.9%-100%
Fusarium sp. 2; Tricide 540 ug/ml
  % decrease MIC 50: >99.9-100% ^
  % decrease MIC 90: 99.9-100%^
  MIC 90 combined with Tricide: 0.05 µg/mL
Fusarium sp. 2; antifungal alone
  MIC50: > 128 µg/mL
  MIC90: > 128 µg/mL
Fusarium sp. 3
  Summary % reduction in MIC 50 using Tricide: 100%
  Summary % reduction in MIC 90 using Tricide: 100%
Fusarium sp. 3; Tricide 540 ug/ml
  % decrease MIC 50: 100%
  % decrease MIC 90: 100%
  MIC 50 combined with Tricide: 0 µg/mL
  MIC 90 combined with Tricide: 0 µg/mL
Fusarium sp. 3; antifungal alone
  MIC50: > 128 µg/mL
  MIC90: > 128 µg/mL
Penicillium sp.
  Summary % reduction in MIC 50 using Tricide: 100%
  Summary % reduction in MIC 90 using Tricide: 100%
Penicillium sp.; Tricide 200 ug/ml
  % decrease MIC 50: 100%
  % decrease MIC 90: 100%
  MIC 50 combined with Tricide: 0 µg/mL
  MIC 90 combined with Tricide: 0 µg/mL
Penicillium sp.; antifungal alone
  MIC50: 0.181 µg/mL
  MIC90: 0.361 µg/mL
Cladosporium sp.
  Summary % reduction in MIC 50 using Tricide: 97%
  Summary % reduction in MIC 90 using Tricide: 98%
Cladosporium sp.; Tricide 200 ug/ml
  % decrease MIC 50: >97%
  % decrease MIC 90: 98%
  MIC 50 combined with Tricide: <0.125 µg/mL
  MIC 90 combined with Tricide: 0.25 µg/mL
Cladosporium sp.; antifungal alone
  MIC50: 4 µg/mL
  MIC90: 16 µg/mL
Curvularia sp.; [9]
  % decrease MIC 50: 99-100% ^
  % decrease MIC 90: 90-100% ^
  MIC 50 combined with Tricide: 0 to 0.0250 µg/mL
  MIC 90 combined with Tricide: 0 to 0.4 µg/mL
Curvularia sp.; Curvularia sp.
  Summary % reduction in MIC 50 using Tricide: 99-100% ^
  Summary % reduction in MIC 90 using Tricide: 90-100% ^
Curvularia sp.; [10]
  MIC50: 3.11 µg/mL
  MIC90: 4 µg/mL
